From US7872005B2, “2-substituted heteroaryl compounds” (Synta Pharmaceuticals Corporation, priority 2004, dated 2011)

Tested on: IL-12 production in human PBMC or THP-1 cells
Test: In vitro inhibition of IL-12 production in stimulated human PBMC or THP-1 cells (ELISA)
Type: cell-based
Settings: representative in vitro IC50 data
Text: The biological activities of a heterocyclic compound can be evaluated by a number of cell-based assays. One of such assays can be conducted using cells from human peripheral blood mononuclear cells (PBMC) or human monocytic cell line (THP-1). The cells are stimulated with a combination of human interferon-γ (IFNγ) and lipopolysaccharide or a combination of IFNγ and Staphylococcus aureus Cowan I in the presence of a test compound. The level of inhibition of IL-12 production can be measured by determining the amount of p70 by using a sandwich ELISA assay with anti-human IL-12 antibodies. IC50 of the test compound can then be determined. Specifically, PBMC or THP-1 cells are incubated with the test compound. Cell viability was assessed using the bioreduction of MTS [3-(4,5-dimethylthiazol-2-yl)-5-(3-carboxymethoxyphenyl)-2-(4-sulfophenyl)-2H-tetrazolium] (Promega, Madison, Wis.).
Reagents. Staphylococcus aureus Cowan I (SAC) was obtained from Calbiochem (La Jolla, Calif.), and lipopolysaccharide (LPS, Serratia marscencens) was obtained from Sigma (St. Louis, Mo.). Human and mouse recombinant IFNγ were purchased from Boehringer Mannheim (Mannheim, Germany) and Pharmingen (San Diego, Calif.), respectively.
Human In Vitro Assay. Human PBMC were isolated by centrifugation using Ficoll-Paque (Pharmacia Biotech, Uppsala, Sweden) and prepared in RPMI medium supplemented with 10% fetal calf serum (FCS), 100 U/mL penicillin, and 100 μg/mL streptomycin. PBMC were plated in wells of a 96-well plate at a concentration of 5×10^5 cells/well, and primed by adding IFNγ (30 U/mL) for 22 h and stimulated by adding LPS (1 μg/mL), or by adding IFNγ (100 U/mL) and then stimulated by adding SAC (0.01%). A test pyrimidine compound was dissolved in DMSO, and added to wells of the 96-well plate. The final DMSO concentration was adjusted to 0.25% in all cultures, including the compound-free control. Human THP-1 cells were plated in wells, primed by adding IFNγ (100 U/mL) for 22 h and stimulated by adding SAC (0.025%) in the presence of different concentrations of the pyrimidine compound. Cell-free supernatants were taken 18 h later for measurement of cytokines. Cell viability was assessed using the bioreduction of MTS. Cell survival was estimated by determining the ratio of the absorbance in compound-treated groups versus compound-free control.
The supernatant was assayed for the amount of IL-12p40, IL-12p70, or IL-10 by using a sandwich ELISA with anti-human antibodies, i.e., a Human IL-12 p40 ELISA kit from R&D Systems (Berkeley, Calif.), and a Human IL-12 p70 or IL-10 ELISA kit from Endogen (Cambridge, Mass.). Assays were based on the manufacturer's instructions.
The biological activities of pyrimidine compounds were tested on human PBMC or THP-1 cells. Unexpectedly, some of the test compounds have IC50 values as low as <1 nM.

SMILES | IC50 [nM]
Cc1cccc(/C=N/Nc2cc(N3CCOCC3)nc(CCCOC(=S)Nc3cccnc3)n2)c1 [Compound 9, Pyridin-3-yl-thiocarbamic acid O-(3-{4-[N′-(3-methyl-benzylidene)-hydrazino]-6-morpholin-4-yl-pyrimidin-2-yl}-propyl) ester] | < 25
Cc1cccc(/C=N/Nc2cc(N3CCOCC3)nc(CCC(C)(C)OC(=O)Nc3cccc(C)c3)n2)c1 [Compound 26, m-Tolyl-carbamic acid 1,1-dimethyl-3-{4-[N′-(3-methyl-benzylidene)-hydrazino]-6-morpholin-4-yl-pyrimidin-2-yl}-propyl ester] | 25 to 50
Cc1cccc(/C=N/N(C)c2cc(N3CCOCC3)nc(CCCOC(=O)Nc3cccc(C(F)(F)F)c3)n2)c1 [Compound 4, (3-Trifluoromethyl-phenyl)-carbamic acid 3-{4-[N-methyl-N′-(3-methyl-benzylidene)-hydrazino]-6-morpholin-4-yl-pyrimidin-2-yl}-propyl ester] | > 50
CCNC(=O)OCCc1nc(N/N=C/c2cccc(C)c2)cc(N2CCOCC2)n1 [Compound 17, Ethyl-carbamic acid 2-{4-[N′-(3-methyl-benzylidene)-hydrazino]-6-morpholin-4-yl-pyrimidin-2-yl}-ethyl ester] | < 25
Cc1cccc(/C=N/Nc2cc(N3CCOCC3)nc(CC(C)(C)OC(=O)Nc3cccc(C(F)(F)F)c3)n2)c1 [Compound 29, (3-Trifluoromethyl-phenyl)-carbamic acid 1,1-dimethyl-2-{4-[N′-(3-methyl-benzylidene)-hydrazino]-6-morpholin-4-yl-pyrimidin-2-yl}-ethyl ester] | > 50
Cc1ccc(NC(=O)OC(C)(C)Cc2nc(N/N=C/c3cccc(C)c3)cc(N3CCOCC3)n2)cc1 [Compound 16, p-Tolyl-carbamic acid 1,1-dimethyl-2-{4-[N′-(3-methyl-benzylidene)-hydrazino]-6-morpholin-4-yl-pyrimidin-2-yl}-ethyl ester] | < 25
